System: MV-4-11 cells
Experiment: Gene expression microarray analysis (Affymetrix PrimeView) and GSEA
Type: cell-based, human
Design: RFU PODN (11730768_x_at) / Fold change /veh PODN (11730768_x_at) / RFU LINC00158 (11744669_a_at) / Fold change /veh LINC00158 (11744669_a_at) / RFU DUSP10 (11751237_a_at) / Fold change /veh DUSP10 (11751237_a_at) / RFU ID3 (11757404_x_at) / Fold change /veh ID3 (11757404_x_at) / RFU PLEKHG5 (11737974_s_at) / Fold change /veh PLEKHG5 (11737974_s_at) / RFU LRRC4B (11730491_at) / Fold change /veh LRRC4B (11730491_at) / RFU GIMAP4 (11747438_a_at) / Fold change /veh GIMAP4 (11747438_a_at) / RFU KRT8 (11758183_x_at) / Fold change /veh KRT8 (11758183_x_at) / RFU CNN1 (11734310_a_at) / Fold change /veh CNN1 (11734310_a_at) / RFU VPS37D (11726825_at) / Fold change /veh VPS37D (11726825_at) / RFU C10orf10 (11716522_x_at) / Fold change /veh C10orf10 (11716522_x_at) / RFU KIR2DL2 /// KIR2DL4 /// KIR2DL5A /// KIR2DL5B /// KIR2DS1 /// KIR2DS2 /// KIR2DS3 /// KIR2DS4 /// KIR3DL3 /// KIR3DL3 /// KIR3DS1 (11738374_at) / Fold change /veh KIR2DL2 /// KIR2DL4 /// KIR2DL5A /// KIR2DL5B /// KIR2DS1 /// KIR2DS2 /// KIR2DS3 /// KIR2DS4 /// KIR3DL3 /// KIR3DL3 /// KIR3DS1 (11738374_at) / RFU C1QL1 (11718748_at) / Fold change /veh C1QL1 (11718748_at) / RFU TMPRSS4 (11747572_a_at) / Fold change /veh TMPRSS4 (11747572_a_at) / RFU HAMP (11756126_x_at) / Fold change /veh HAMP (11756126_x_at) / RFU RNFT2 (11725882_a_at) / Fold change /veh RNFT2 (11725882_a_at) / RFU NR4A2 (11747474_a_at) / Fold change /veh NR4A2 (11747474_a_at) / RFU ABCC12 (11746883_a_at) / Fold change /veh ABCC12 (11746883_a_at) / RFU TMEM136 (11760407_x_at) / Fold change /veh TMEM136 (11760407_x_at) / RFU CLDN22 /// WWC2 (11732394_at) / Fold change /veh CLDN22 /// WWC2 (11732394_at) / RFU HLA-DPB1 (11760878_x_at) / Fold change /veh HLA-DPB1 (11760878_x_at) / RFU SPINT1 (11716480_a_at) / Fold change /veh SPINT1 (11716480_a_at) / RFU GAP43 (11754022_s_at) / Fold change /veh GAP43 (11754022_s_at) / RFU A4GNT (11735810_at) / Fold change /veh A4GNT (11735810_at) / RFU PRB3 (11715151_x_at) / Fold change /veh PRB3 (11715151_x_at) / RFU TUBB4B (11761932_at) / Fold change /veh TUBB4B (11761932_at) / RFU CAPN14 (11732068_a_at) / Fold change /veh CAPN14 (11732068_a_at) / RFU TMCC2 (11721928_a_at) / Fold change /veh TMCC2 (11721928_a_at) / RFU IRGQ (11745062_a_at) / Fold change /veh IRGQ (11745062_a_at) / RFU FAM174B (11720279_a_at) / Fold change /veh FAM174B (11720279_a_at) / RFU TMPRSS4 (11748680_a_at) / Fold change /veh TMPRSS4 (11748680_a_at) / RFU FAM212B (11763350_a_at) / Fold change /veh FAM212B (11763350_a_at) / RFU PLEKHG5 (11743358_a_at) / Fold change /veh PLEKHG5 (11743358_a_at) / RFU ZSCAN30 (11745921_a_at) / Fold change /veh ZSCAN30 (11745921_a_at) / RFU CMKLR1 (11741424_a_at) / Fold change /veh CMKLR1 (11741424_a_at) / RFU LOC101060620 /// MAPK8IP1 (11723275_at) / Fold change /veh LOC101060620 /// MAPK8IP1 (11723275_at) / RFU SPTSSB (11747773_x_at) / Fold change /veh SPTSSB (11747773_x_at) / RFU PRSS12 (11739890_at) / Fold change /veh PRSS12 (11739890_at) / RFU BIN1 (11741810_x_at) / Fold change /veh BIN1 (11741810_x_at) / RFU WNT11 (11732464_a_at) / Fold change /veh WNT11 (11732464_a_at) / RFU C10orf10 (11716521_a_at) / Fold change /veh C10orf10 (11716521_a_at) / RFU C5orf56 (11738089_at) / Fold change /veh C5orf56 (11738089_at) / RFU CYB561 (11721691_x_at) / Fold change /veh CYB561 (11721691_x_at) / RFU ANKRD19P (11752326_a_at) / Fold change /veh ANKRD19P (11752326_a_at) / RFU OR2T12 /// OR2T33 /// OR2T8 (11738714_s_at) / Fold change /veh OR2T12 /// OR2T33 /// OR2T8 (11738714_s_at) / RFU VCAN (11748164_a_at) / Fold change /veh VCAN (11748164_a_at) / RFU JSRP1 (11732532_at) / Fold change /veh JSRP1 (11732532_at) / RFU KRTAP10-11 (11738290_x_at) / Fold change /veh KRTAP10-11 (11738290_x_at) / RFU MYO3A (11730013_a_at) / Fold change /veh MYO3A (11730013_a_at) / RFU EBF3 (11725865_a_at) / Fold change /veh EBF3 (11725865_a_at) / RFU CAMK2N1 (11719241_x_at) / Fold change /veh CAMK2N1 (11719241_x_at) / RFU C5orf56 (11738088_a_at) / Fold change /veh C5orf56 (11738088_a_at) / RFU OLFML3 (11715873_a_at) / Fold change /veh OLFML3 (11715873_a_at) / RFU LOC100653217 /// NTM (11731650_a_at) / Fold change /veh LOC100653217 /// NTM (11731650_a_at) / RFU MAPK11 (11762145_a_at) / Fold change /veh MAPK11 (11762145_a_at) / RFU FIZ1 (11724087_x_at) / Fold change /veh FIZ1 (11724087_x_at) / RFU OASL (11726364_x_at) / Fold change /veh OASL (11726364_x_at) / RFU SOX15 (11748057_x_at) / Fold change /veh SOX15 (11748057_x_at) / RFU CD79A (11719716_a_at) / Fold change /veh CD79A (11719716_a_at) / RFU HIST1H1D (11736915_at) / Fold change /veh HIST1H1D (11736915_at) / RFU CASKIN2 (11723855_a_at) / Fold change /veh CASKIN2 (11723855_a_at) / RFU LOC730098 (11760151_x_at) / Fold change /veh LOC730098 (11760151_x_at) / RFU OR4N2 (11742367_at) / Fold change /veh OR4N2 (11742367_at) / RFU PRRT2 (11749266_a_at) / Fold change /veh PRRT2 (11749266_a_at) / RFU SNX32 (11753110_a_at) / Fold change /veh SNX32 (11753110_a_at) / RFU CDHR5 (11726645_a_at) / Fold change /veh CDHR5 (11726645_a_at) / RFU RCAN1 (11760418_a_at) / Fold change /veh RCAN1 (11760418_a_at) / RFU FAM167A (11723789_a_at) / Fold change /veh FAM167A (11723789_a_at) / RFU FAM26E (11764081_at) / Fold change /veh FAM26E (11764081_at) / RFU ISYNA1 (11749810_s_at) / Fold change /veh ISYNA1 (11749810_s_at) / RFU ACY1 (11761880_at) / Fold change /veh ACY1 (11761880_at) / RFU 11764098_at / Fold change /veh 11764098_at / RFU SAMD14 (11745864_x_at) / Fold change /veh SAMD14 (11745864_x_at) / RFU NPB (11741838_a_at) / Fold change /veh NPB (11741838_a_at) / RFU TMPRSS6 (11731388_a_at) / Fold change /veh TMPRSS6 (11731388_a_at) / RFU KRTAP10-2 (11738614_at) / Fold change /veh KRTAP10-2 (11738614_at) / RFU ARHGAP8 /// PRR5-ARHGAP8 (11727945_x_at) / Fold change /veh ARHGAP8 /// PRR5-ARHGAP8 (11727945_x_at) / RFU KRTAP5-7 /// NADSYN1 (11734609_at) / Fold change /veh KRTAP5-7 /// NADSYN1 (11734609_at) / RFU RASL12 (11751679_a_at) / Fold change /veh RASL12 (11751679_a_at) / RFU CDKN2B (11736163_a_at) / Fold change /veh CDKN2B (11736163_a_at) / RFU PRF1 (11729649_at) / Fold change /veh PRF1 (11729649_at) / RFU, ZNF638 /// ZNF638-IT1 / Fold change vs veh, ZNF638 /// ZNF638-IT1 / RFU, PANK3 / Fold change vs veh, PANK3 / RFU, SH3YL1 / Fold change vs veh, SH3YL1 / RFU, ZEB2 / Fold change vs veh, ZEB2 / RFU, NRIP1 / Fold change vs veh, NRIP1 / RFU, PTTG1IP / Fold change vs veh, PTTG1IP / RFU, CAPN2 / Fold change vs veh, CAPN2 / RFU, MED14 / Fold change vs veh, MED14 / RFU, SNORA58 / Fold change vs veh, SNORA58 / RFU, C1orf63 / Fold change vs veh, C1orf63 / RFU, LRRFIP1 / Fold change vs veh, LRRFIP1 / RFU, NDUFAF7 / Fold change vs veh, NDUFAF7 / RFU, SLC12A2 / Fold change vs veh, SLC12A2 / RFU, IBTK / Fold change vs veh, IBTK / RFU, ESF1 / Fold change vs veh, ESF1 / Fold change vs veh, TMEM50B / RFU, TAOK1 / Fold change vs veh, TAOK1 / RFU, ACBD3 / Fold change vs veh, ACBD3 / RFU, TMA16 / Fold change vs veh, TMA16 / RFU, RWDD3 / Fold change vs veh, RWDD3 / RFU, BCAT1 / Fold change vs veh, BCAT1 / RFU, EDEM3 / Fold change vs veh, EDEM3 / RFU, TMEM33 / Fold change vs veh, TMEM33 / RFU, WDR75 / Fold change vs veh, WDR75 / RFU, AHCTF1 / Fold change vs veh, AHCTF1 / RFU, TFRC / Fold change vs veh, TFRC / RFU, ZDHHC17 / Fold change vs veh, ZDHHC17 / RFU, NOM1 / Fold change vs veh, NOM1 / RFU, ARL8B / Fold change vs veh, ARL8B / RFU, ZBTB11 / Fold change vs veh, ZBTB11 / RFU, TAMM41 / Fold change vs veh, TAMM41 / RFU, KIAA1704 /// LOC100996395 / Fold change vs veh, KIAA1704 /// LOC100996395 / RFU, ING1 / Fold change vs veh, ING1 / RFU, TRMT61B / Fold change vs veh, TRMT61B / RFU, FUBP3 / Fold change vs veh, FUBP3 / RFU, TP53 / Fold change vs veh, TP53 / RFU, TNKS2 / Fold change vs veh, TNKS2 / RFU, ZFP14 / Fold change vs veh, ZFP14 / RFU, ACTR2 / Fold change vs veh, ACTR2 / RFU, PPP3R1 / Fold change vs veh, PPP3R1 / RFU, PIK3R1 / Fold change vs veh, PIK3R1 / RFU, HNRNPA1 / Fold change vs veh, HNRNPA1 / RFU, RNF170 / Fold change vs veh, RNF170 / RFU, ZNF28 / Fold change vs veh, ZNF28 / RFU, RNGTT / Fold change vs veh, RNGTT / RFU, OGT / Fold change vs veh, OGT / RFU, BRD1 / Fold change vs veh, BRD1 / RFU, MARS / Fold change vs veh, MARS / RFU, ZNF655 / Fold change vs veh, ZNF655 / RFU, FAHD1 / Fold change vs veh, FAHD1 / RFU, BDP1 / Fold change vs veh, BDP1 / RFU, LRRCC1 / Fold change vs veh, LRRCC1 / RFU, ARID1A / Fold change vs veh, ARID1A / RFU, ZNF146 / Fold change vs veh, ZNF146 / RFU, ZNF330 / Fold change vs veh, ZNF330 / RFU, GPN3 / Fold change vs veh, GPN3 / RFU, C9orf123 / Fold change vs veh, C9orf123 / RFU, N4BP2L2 / Fold change vs veh, N4BP2L2 / RFU, ARFIP1 / Fold change vs veh, ARFIP1 / RFU, FAM179B / Fold change vs veh, FAM179B / RFU, BCL10 / Fold change vs veh, BCL10 / RFU, UHRF1BP1L / Fold change vs veh, UHRF1BP1L / RFU, BET1 / Fold change vs veh, BET1 / RFU, CNOT2 / Fold change vs veh, CNOT2 / RFU, ZNF268 / Fold change vs veh, ZNF268 / Fold change vs veh, ZNF507 / RFU, DGCR2 / Fold change vs veh, DGCR2 / RFU, WDSUB1 / Fold change vs veh, WDSUB1 / Fold change vs veh, HSP90B1 /// MIR3652 / RFU, ADSS / Fold change vs veh, ADSS / RFU, GK / Fold change vs veh, GK / RFU, ZNF148 / Fold change vs veh, ZNF148 / RFU, TAF9 / Fold change vs veh, TAF9 / RFU, SLC1A5 / Fold change vs veh, SLC1A5 / RFU, SLMO2 / Fold change vs veh, SLMO2 / RFU, ABCC4 / Fold change vs veh, ABCC4 / RFU, LOC101060439 /// RAP1B / Fold change vs veh, LOC101060439 /// RAP1B / RFU, RFX7 / Fold change vs veh, RFX7 / RFU, GTPBP10 / Fold change vs veh, GTPBP10 / RFU, CNEP1R1 / Fold change vs veh, CNEP1R1 / RFU, BIVM-ERCC5 /// ERCC5 / Fold change vs veh, BIVM-ERCC5 /// ERCC5 / RFU, ILF3 / Fold change vs veh, ILF3 / RFU 11762660_at / Fold change /veh 11762660_at / RFU VCAN (11757783_s_at) / Fold change /veh VCAN (11757783_s_at) / RFU DDX43 (11728927_at) / Fold change /veh DDX43 (11728927_at) / RFU KRT8 (11758188_x_at) / Fold change /veh KRT8 (11758188_x_at) / RFU NKD1 (11759106_at) / Fold change /veh NKD1 (11759106_at) / RFU SRD5A1 (11742802_a_at) / Fold change /veh SRD5A1 (11742802_a_at) / RFU TPSAB1 /// TPSB2 (11721975_s_at) / Fold change /veh TPSAB1 /// TPSB2 (11721975_s_at) / RFU GSTM3 (11746129_a_at) / Fold change /veh GSTM3 (11746129_a_at) / RFU IL23R (11737362_x_at) / Fold change /veh IL23R (11737362_x_at) / RFU TMEM51 (11727254_a_at) / Fold change /veh TMEM51 (11727254_a_at) / RFU PIWIL2 (11732686_x_at) / Fold change /veh PIWIL2 (11732686_x_at) / RFU ORM1 (11744905_x_at) / Fold change /veh ORM1 (11744905_x_at) / RFU CCDC152 (11743942_at) / Fold change /veh CCDC152 (11743942_at) / RFU ECM1 (11717891_a_at) / Fold change /veh ECM1 (11717891_a_at) / RFU IL23R (11748794_a_at) / Fold change /veh IL23R (11748794_a_at) / RFU TNFAIP8L3 (11732012_x_at) / Fold change /veh TNFAIP8L3 (11732012_x_at) / RFU MBOAT4 (11741988_at) / Fold change /veh MBOAT4 (11741988_at) / RFU 11764193_at / Fold change /veh 11764193_at / RFU TMEM53 (11763286_at) / Fold change /veh TMEM53 (11763286_at) / RFU MAGEB2 (11727129_at) / Fold change /veh MAGEB2 (11727129_at) / RFU TMEM200A (11744735_a_at) / Fold change /veh TMEM200A (11744735_a_at) / RFU CCDC152 (11751479_a_at) / Fold change /veh CCDC152 (11751479_a_at) / RFU FAM211A (11726209_a_at) / Fold change /veh FAM211A (11726209_a_at) / RFU RGS16 (11746705_a_at) / Fold change /veh RGS16 (11746705_a_at) / RFU VCAN (11755009_s_at) / Fold change /veh VCAN (11755009_s_at) / RFU RHOB (11743442_s_at) / Fold change /veh RHOB (11743442_s_at) / RFU RGS16 (11720943_a_at) / Fold change /veh RGS16 (11720943_a_at) / RFU RGS16 (11720944_at) / Fold change /veh RGS16 (11720944_at) / RFU, VPS4B / Fold change vs veh, VPS4B / RFU, CREB1 / Fold change vs veh, CREB1 / RFU, DNAJC13 / Fold change vs veh, DNAJC13 / RFU, GNAQ / Fold change vs veh, GNAQ / RFU, CDK5R1 / Fold change vs veh, CDK5R1 / RFU, ZRANB3 / Fold change vs veh, ZRANB3 / RFU, CUL4A / Fold change vs veh, CUL4A / RFU, CCNY / Fold change vs veh, CCNY / RFU, UFL1 / Fold change vs veh, UFL1 / RFU, COG3 / Fold change vs veh, COG3 / RFU, DIAPH2 / Fold change vs veh, DIAPH2 / RFU, SKA2 / Fold change vs veh, SKA2 / RFU, AFF3 / Fold change vs veh, AFF3 / RFU, LMF1 / Fold change vs veh, LMF1 / RFU, IPO11 / Fold change vs veh, IPO11 / RFU, DFFB / Fold change vs veh, DFFB / RFU, FOXP1 / Fold change vs veh, FOXP1 / RFU, CARD8 / Fold change vs veh, CARD8 / RFU, STRN3 / Fold change vs veh, STRN3 / RFU, ADK / Fold change vs veh, ADK / RFU, RASSF2 / Fold change vs veh, RASSF2 / RFU, WIPF1 / Fold change vs veh, WIPF1 / RFU, LARP1B / Fold change vs veh, LARP1B / RFU, RASA1 / Fold change vs veh, RASA1 / RFU, RB1 / Fold change vs veh, RB1 / RFU, PPFIA1 / Fold change vs veh, PPFIA1 / RFU, MAT2A / Fold change vs veh, MAT2A / RFU, CCT5 / Fold change vs veh, CCT5 / RFU, WDR92 / Fold change vs veh, WDR92 / RFU, CUX1 / Fold change vs veh, CUX1 / RFU, TTC7A / Fold change vs veh, TTC7A / RFU, TMEM135 / Fold change vs veh, TMEM135 / RFU, DEPTOR / Fold change vs veh, DEPTOR / RFU, CPM / Fold change vs veh, CPM / RFU, DNAJB6 / Fold change vs veh, DNAJB6 / RFU, CACNA2D3 / Fold change vs veh, CACNA2D3 / RFU, DTX4 / Fold change vs veh, DTX4 / RFU, TFCP2 / Fold change vs veh, TFCP2 / RFU, GMCL1 /// GMCL1P1 / Fold change vs veh, GMCL1 /// GMCL1P1 / RFU, AEBP2 / Fold change vs veh, AEBP2 / RFU, SNHG1 /// SNORD22 /// SNORD25 /// SNORD26 /// SNORD27 /// SNORD28 /// SNORD29 /// SNORD31 / Fold change vs veh, SNHG1 /// SNORD22 /// SNORD25 /// SNORD26 /// SNORD27 /// SNORD28 /// SNORD29 /// SNORD31 / Fold change (Aza/veh), C12orf56 (ProbeSet 11735607_a_at) / Fold change (ACY-1035/veh), C12orf56 (ProbeSet 11735607_a_at) / Fold change (Aza/veh), FGFR1OP (ProbeSet 11751329_s_at) / Fold change (ACY-1035/veh), FGFR1OP (ProbeSet 11751329_s_at) / Fold change (Aza/veh), VPS36 (ProbeSet 11739960_a_at) / Fold change (ACY-1035/veh), VPS36 (ProbeSet 11739960_a_at) / RFU SYPL1 (11715823_x_at) / Fold change /veh SYPL1 (11715823_x_at) / RFU IGFBP7 (11715501_s_at) / Fold change /veh IGFBP7 (11715501_s_at) / RFU REEP3 (11722064_at) / Fold change /veh REEP3 (11722064_at) / RFU IGLL1 (11728026_x_at) / Fold change /veh IGLL1 (11728026_x_at): dose or concentration left out as unconfirmed
Conditions: MV-4-11 cells, 48 hours

Nc1ncn([C@@H]2O[C@H](CO)[C@@H](O)[C@H]2O)c(=O)n1 [azacitidine]
RFU CDKN2B (11736163_a_at): 8.51 RFU

— publication PMC5218480 (PLoS ONE, 2017)
